Data as given in paper doi:10.1101/2024.08.19.608619, “Discovery of potent SARS-CoV-2 nsp3 macrodomain inhibitors uncovers lack of translation to cellular antiviral response” (bioRxiv, 2024).
Read-outs that look alike come from different tables or passages of the source.

Key:
[1] = biological target: T1, SARS-CoV-2 nsp3-mac1 (Severe acute respiratory syndrome coronavirus 2, UniProt P0DTD1); assay: biochemical; format: biochemical; details: SARS-CoV-2 nsp3 macrodomain TR-FRET single point
[2] = biological target: T1, SARS-CoV-2 nsp3-mac1; assay: biochemical; set-up: SARS-CoV-2 nsp3 macrodomain TR-FRET single point, per cent inhibition, n=2
[3] = read-out: perc_inhibition_mean, batch_name=ASAP-0000318-001
[4] = read-out: perc_inhibition_mean, batch_name=ASAP-0000305-001
[5] = read-out: perc_inhibition_mean, batch_name=ASAP-0000304-001
[6] = read-out: perc_inhibition_mean, batch_name=ASAP-0000360-001
[7] = read-out: perc_inhibition_mean, batch_name=ASAP-0000404-001
[8] = read-out: perc_inhibition_mean, batch_name=ASAP-0000291-001
[9] = read-out: perc_inhibition_mean, batch_name=ASAP-0000243-001
[10] = read-out: perc_inhibition_mean, batch_name=ASAP-0000398-001
[11] = read-out: perc_inhibition_mean, batch_name=ASAP-0000299-001
[12] = read-out: perc_inhibition_mean, batch_name=ASAP-0000364-001
[13] = read-out: perc_inhibition_mean, batch_name=ASAP-0000310-001
[14] = read-out: perc_inhibition_mean, batch_name=ASAP-0000426-001
[15] = read-out: perc_inhibition_mean, batch_name=ASAP-0000479-001
[16] = read-out: perc_inhibition_mean, batch_name=ASAP-0000382-001

## Cc1nc2cnccn2c1NC(=O)c1cc(-c2ccco2)[nH]n1 [ASAP-0000101]
[1]; concentration 50.0 uM
  perc_inhibition_mean: -3.884%
[2]; read-out: perc_inhibition_mean, batch_name=ASAP-0000101-001
  inhibition at 50 µM: -3.88%

## O=C(CCN(Cc1cccc(Cl)c1)C(=O)c1c[nH]c(=O)cn1)N1CCNCC1 [ASAP-0000318]
[1]; concentration 49.75 uM, n=2
  perc_inhibition_mean: -2.705%
[1]; concentration 99.5 uM, n=2
  perc_inhibition_mean: 0.98%
[2]; [3]
  inhibition at 49.75 µM: -2.71%
  inhibition at 99.5 µM: 0.98%

## CC1(C)CNCCN1C(=O)c1ccc(NC(=O)Nc2ccccc2)cc1 [ASAP-0000305]
[1]; concentration 49.75 uM, n=2
  perc_inhibition_mean: 2.242%
[1]; concentration 99.5 uM, n=2
  perc_inhibition_mean: 1.393%
[2]; [4]
  inhibition at 49.75 µM: 2.24%
  inhibition at 99.5 µM: 1.39%

## O=C(Nc1ccccc1)Nc1ccc(C(=O)NCc2ccnc(F)c2)cc1 [ASAP-0000304]
[1]; concentration 49.75 uM, n=2
  perc_inhibition_mean: -0.36%
[1]; concentration 99.5 uM, n=2
  perc_inhibition_mean: 4.92%
[2]; [5]
  inhibition at 49.75 µM: -0.36%
  inhibition at 99.5 µM: 4.92%

## O=C(O)c1ccsc1C(=O)N1CCC(c2ccn3ncc(C(=O)N4CCCCC4)c3c2)CC1 [ASAP-0000360]
[1]; concentration 49.75 uM
  perc_inhibition_mean: 45.022%
[1]; concentration 99.5 uM
  perc_inhibition_mean: 61.208%
[2]; [6]
  inhibition at 49.75 µM: 45%
  inhibition at 99.5 µM: 61.2%

## O=C(OCc1ccc(Cl)nc1)c1ncnc2[nH]ccc12 [ASAP-0000066]
[1]; concentration 50.0 uM
  perc_inhibition_mean: 6.084%
[2]; read-out: perc_inhibition_mean, batch_name=ASAP-0000066-001
  inhibition at 50 µM: 6.08%

## O=C(c1ccccc1)N1CCC(c2ccn3ncc(C(=O)N4CCn5ncnc5C4)c3c2)CC1 [ASAP-0000404]
[1]; concentration 49.75 uM
  perc_inhibition_mean: -3.769%
[1]; concentration 99.5 uM
  perc_inhibition_mean: -3.519%
[2]; [7]
  inhibition at 49.75 µM: -3.77%
  inhibition at 99.5 µM: -3.52%

## C[C@H](NC(=O)c1ccc(NC(=O)Nc2ccccc2)cc1)c1ccccn1 [ASAP-0000291]
[1]; concentration 49.75 uM, n=2
  perc_inhibition_mean: 2.448%
[1]; concentration 99.5 uM, n=2
  perc_inhibition_mean: 0.349%
[2]; [8]
  inhibition at 49.75 µM: 2.45%
  inhibition at 99.5 µM: 0.349%

## CO[C@@]1(C(=O)O)CCN(C(=O)c2ncnc3[nH]ccc23)C1 [ASAP-0000243]
[1]; concentration 50.0 uM
  perc_inhibition_mean: -4.181%
[1]; concentration 100.0 uM
  perc_inhibition_mean: -3.71%
[2]; [9]
  inhibition at 50 µM: -4.18%
  inhibition at 100 µM: -3.71%

## C[C@@]1(C(N)=O)CCCN1C(=O)c1cnn2ccc(C3CCN(C(=O)c4ccccc4)CC3)cc12 [ASAP-0000398]
[1]; concentration 49.75 uM
  perc_inhibition_mean: -8.039%
[1]; concentration 99.5 uM
  perc_inhibition_mean: 10.386%
[2]; [10]
  inhibition at 49.75 µM: -8.04%
  inhibition at 99.5 µM: 10.4%

## CCN(Cc1cccnc1)C(=O)c1ccc(NC(=O)Nc2ccccc2)cc1 [ASAP-0000299]
[1]; concentration 49.75 uM, n=2
  perc_inhibition_mean: 3.632%
[1]; concentration 99.5 uM, n=2
  perc_inhibition_mean: -7.091%
[2]; [11]
  inhibition at 49.75 µM: 3.63%
  inhibition at 99.5 µM: -7.09%

## O=C(c1ccnnc1O)N1CCC(c2ccn3ncc(C(=O)N4CCCCC4)c3c2)CC1 [ASAP-0000364]
[1]; concentration 49.75 uM
  perc_inhibition_mean: -7.591%
[1]; concentration 99.5 uM
  perc_inhibition_mean: 10.21%
[2]; [12]
  inhibition at 49.75 µM: -7.59%
  inhibition at 99.5 µM: 10.2%

## O=C(O)c1sccc1C(=O)N1CCC(c2ccn3ncc(C(=O)N4CCCCC4)c3c2)CC1 [ASAP-0000310]
[1]; concentration 49.75 uM, n=2
  perc_inhibition_mean: 55.49%
[1]; concentration 99.5 uM, n=2
  perc_inhibition_mean: 71.528%
[2]; [13]
  inhibition at 49.75 µM: 55.5%
  inhibition at 99.5 µM: 71.5%

## CC(C)c1nc([C@@H](C)Nc2ncnc3nc[nH]c23)cs1 [ASAP-0000426]
[1]; concentration 49.75 uM
  perc_inhibition_mean: 2.645%
[1]; concentration 99.5 uM
  perc_inhibition_mean: 3.067%
[2]; [14]
  inhibition at 49.75 µM: 2.65%
  inhibition at 99.5 µM: 3.07%

## CC(C)[C@@H]1C(=O)NCCN1c1ncnc2[nH]ccc12 [ASAP-0000479]
[1]; concentration 49.75 uM
  perc_inhibition_mean: 61.35%
[1]; concentration 99.5 uM
  perc_inhibition_mean: 80.665%
[2]; [15]
  inhibition at 49.75 µM: 61.4%
  inhibition at 99.5 µM: 80.7%

## O=C(c1cncc(O)n1)N1CCC(c2ccn3ncc(C(=O)N4CCCCC4)c3c2)CC1 [ASAP-0000382]
[1]; concentration 49.75 uM
  perc_inhibition_mean: 26.617%
[1]; concentration 99.5 uM
  perc_inhibition_mean: 41.906%
[2]; [16]
  inhibition at 49.75 µM: 26.6%
  inhibition at 99.5 µM: 41.9%

## COc1nc2cc(NC(=O)c3cc(N4CCNC4=O)ccc3F)ccc2[nH]1 [ASAP-0000070]
[1]; concentration 50.0 uM
  perc_inhibition_mean: -4.208%
[2]; read-out: perc_inhibition_mean, batch_name=ASAP-0000070-001
  inhibition at 50 µM: -4.21%

## CS(=O)(=O)N1CC[C@@H](COC(=O)c2ncnc3[nH]ccc23)C1 [ASAP-0000040]
[1]; concentration 50.0 uM
  perc_inhibition_mean: 0.187%
[2]; read-out: perc_inhibition_mean, batch_name=ASAP-0000040-001
  inhibition at 50 µM: 0.187%
